Activity calls are given as the source filed them.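 How the source made its calls: active means AC50 no more than tenfold above the top dose tested, or full inhibition at every dose with a flat fit (cut at about 19 µM in these data); inconclusive means flat curve fit with inhibition between 30% and 70%, or poor fit; inactive means AC50 more than tenfold above the top dose tested.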
Each molecule was assayed on HMLE_sh_eGFP viability, CellTiter-Glo luminescence, 72 h (assay: cytotoxicity in HMLE control line with eGFP shRNA, dose response, counter-screen for HMLE_sh_ECad selective toxicity project, cell-based, HMLE_sh_eGFP, luminescence (AID 463074);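 further: counterscreen control line to flag general toxicity for the HMLE_sh_ECad screen; potency for loss of viability as luminescence drops below DMSO wells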).
With COc1ccc(NC(=O)c2ccc(COc3ccccc3Br)o2)c(OC)c1 the AC50 was 3.67 µM.
With O=C(Nc1ccc2c(c1)OCCO2)C(=O)c1c[nH]c2ccccc12 the AC50 was 1.85 µM.
FC(F)Oc1ccc(-c2csc(NNC3=NCCCCC3)n2)cc1 showed an AC50 of 3.28 µM.
In the case of CCOC(=O)N1C(=O)[C@@](c2ccc(Cl)cc2)(C(C)C)N1C(=O)OCC, the AC50 is reported as 7.14 µM.
CCOc1cccc(/C=N/NC(=O)c2cc(C3CC3)[nH]n2)c1O was tested, and the AC50 was 5.72 µM.
In the case of NC(=O)CC(NC(=O)c1ccc(Br)cc1)c1ccc(N2CCCCCCC2)c([N+](=O)[O-])c1 (centres undefined), the AC50 is reported as 7.85 µM.
Work on CC(=O)Oc1ccc2c(=O)c(-c3nc4ccccc4s3)coc2c1 yielded an AC50 of 9.34 µM.
O=C(Nc1cccc(Cl)c1)Nc1cc(S(=O)(=O)N2CCCCC2)ccc1Cl was tested, and the AC50 was 2.82 µM.
CC1(C)Cc2ccccc2C(CSc2ccccc2C(=O)O)=N1 showed an AC50 of 17.2 µM.
COc1ccc(-c2sc3ccccc3c2/C=C/c2ccc(N)cc2)cc1 showed an AC50 of 15.8 µM.
In the case of O=C(c1c[nH]c2ccccc12)C(Cl)c1ccccc1 (centres undefined), the AC50 is reported as 11.2 µM.
Work on COc1cccc(-c2cc(=O)c3cc(NC(=O)c4ccc(N(C)C)cc4)ccc3[nH]2)c1 yielded an AC50 of 0.559 µM.
For O=C(NCc1ccco1)c1nc2c(nnn2Cc2ccccc2Cl)c(=O)[nH]1, the AC50 was 1.92 µM.
For CC12CCC3C(CC=C4CC(O)CCC43C)C1C/C(=C\c1ccccc1F)C2=O (centres undefined), the AC50 was 4.04 µM.
Work on COc1ccc(N=N/C(=C\O)C(=O)c2cccs2)cc1 yielded an AC50 of 5.35 µM.
With O=S(=O)(Nc1ccc(O)c(Sc2nc3ccccc3s2)c1)c1cccc2ccccc12 the AC50 was 5.83 µM.
In the case of Cc1ccc(NC(=O)c2nc[nH]c2C(=O)NCCCNC(=O)c2[nH]cnc2C(=O)Nc2ccc(C)cc2)cc1, the AC50 is reported as 3.86 µM.
COc1ccc(NC(=O)c2c(N)no[n+]2[O-])cc1 showed an AC50 of 1.34 µM.
Molecule CCCCCc1cc(=O)oc2c(C(CCN(CC)CC)c3cc(OC)c(OC)c(OC)c3)c(OC)cc(OC)c12 (centres undefined) has an AC50 of 14.3 µM.
Molecule O=C(NC(=O)N1CCN(c2cccc(Cl)c2)CC1)c1ccc(Cl)cc1 has an AC50 of 0.573 µM.
Molecule Clc1ccc(/C=C/c2nc3ccccc3[nH]2)cc1 has an AC50 of 3.5 µM.
Cc1c(C)n(CCc2ccccc2)c2ncnc(NCCCN(C)C)c12 was tested, and the AC50 was 5.52 µM.
For Nc1cc(Cl)ccc1Oc1ccc2ccccc2c1, the AC50 was > 10 µM (inactive).
COc1ccc(-c2nc(N)nc(C)c2Oc2ccccc2Br)c(O)c1 gave an AC50 of 5.08 µM.
O=C(/C=C/c1ccc(Cl)c([N+](=O)[O-])c1)c1ccc(O)cc1 showed an AC50 of 3.72 µM.
Molecule CCC1CSC(Nc2ccc(C(=O)/C=C/c3cccc(C)c3)cc2)=N1 (centres undefined) has an AC50 of 5.56 µM.
O=Cc1cc2ccccc2nc1SCc1ccc(Cl)c(Cl)c1 showed an AC50 of 6.37 µM.
In the case of CC1CCCCC1NC(=O)/C(C#N)=C/c1ccccc1F (centres undefined), the AC50 is reported as 7.72 µM.
Molecule O=C(N/N=C\c1cc(Br)ccc1O)c1ccc(S(=O)(=O)N2CCCCC2)cc1 has an AC50 of 2.75 µM.
With CC(C)c1ccc(NC(=O)c2snc3ccc(Cl)cc23)cc1 the AC50 was 3.62 µM.
With CC1(C)C[C@H](O)[C@]2(CO)[C@H](O)C[C@]3(C)C(=CCC4[C@@]5(C)CC[C@H](O)C(C)(C)C5CC[C@]43C)[C@@H]2C1 (some centres undefined) the AC50 was 3.63 µM.
CCCCn1c(=O)c(C(=O)NCc2ccccc2)c(O)c2ccccc21 was tested, and the AC50 was 8.36 µM.
For CN1CCN(CCCNC(=O)c2ccc(/C=C3\Oc4ccccc4N(Cc4ccc(Cl)cc4)C3=O)cc2)CC1, the AC50 was 3.31 µM.
CCCCCc1cc(=O)oc2c(C(CCN3CCCC(C)C3)c3cc(OC)c(OC)c(OC)c3)c(OC)cc(OC)c12 (centres undefined) was tested, and the AC50 was 7.18 µM.
CCCCCc1nc2c(c(=O)c3ccccc3n2C)c(=O)n1C1CCCCCC1 showed an AC50 of 2.97 µM.
Molecule Oc1nc(Nc2cccc(Cl)c2)sc1/C=C1\C=Nc2ccccc21 has an AC50 of 3.78 µM.
Molecule CCN(Cc1ccccc1)c1ccc(/C=N/N=C(N)N)cc1 has an AC50 of 3.16 µM.
Work on O=C(O)CCCCCN1C(=O)/C(=C\c2cn(-c3ccccc3)nc2-c2cccs2)SC1=S yielded an AC50 of 3.5 µM.
Molecule COc1ccc(CCNC(=O)c2coc(=O)c(Br)c2)cc1 has an AC50 of 15 µM.
In the case of O=C(NC(NC(=S)Nc1cccc(Cl)c1)C(Cl)(Cl)Cl)OCc1ccccc1 (centres undefined), the AC50 is reported as 3.93 µM.
In the case of Cc1ccc(NC(=S)Nc2ccc(C(C)C)cc2)cc1S(=O)(=O)N1CCCCCC1, the AC50 is reported as 3.82 µM.
Work on Cc1nc(NCc2ccco2)c2c(C)c(C)sc2n1 yielded an AC50 of 5.22 µM.
CCOC(=O)c1c(NC(=O)CSc2nc3ccc(C)cc3[nH]2)sc2c1CC(C)(C)NC2(C)C gave an AC50 of 6.64 µM.
Molecule C=C1/C(=C\C=C2/CCC[C@]3(C)[C@@H]([C@H](C)/C=C/[C@@H](O)C4CC4)CC[C@@H]23)C[C@@H](O)C[C@@H]1O has an AC50 of 6.49 µM.
With Cc1cccc(-c2oc3ccccc3c2C#CCCO)c1 the AC50 was 10.1 µM.
Work on O=C1NC[C@@H](Cc2cccc3ccccc23)N(CCCCC2CCCCC2)C1=O yielded an AC50 of 7.05 µM.
CC1(C)Cc2c(c(N3CCOCC3)nc3sc4c(NN)ncnc4c23)CS1 was tested, and the AC50 was 11.4 µM.
Molecule CC(C)(Oc1ccc(Cl)cc1)C(=O)NC1=NN(c2ccccc2)C(=O)C1 has an AC50 of 6.11 µM.
O=C(NC(NC(=S)Nc1ccccc1)C(Cl)(Cl)Cl)c1cccc(Cl)c1 (centres undefined) showed an AC50 of 5.36 µM.
COc1ccc(-c2sc3cc4c(cc3c2-c2ccc(OCCN3CCOCC3)cc2)OCO4)cc1 was tested, and the AC50 was 0.254 µM.
Molecule COC(=O)C1=C(C)N(Cc2ccccc2)C(=NCc2cccc(Cl)c2)N[C@H]1c1ccccc1 has an AC50 of 7.17 µM.
With CC(C)(C)c1ccc(C(=O)Nc2ccc(N3CCOCC3)cc2)cc1 the AC50 was 17.3 µM.
Work on C=C(C)COc1ccc(-c2[nH]ncc2-c2ccc(OC)cc2)c(O)c1 yielded an AC50 of 8.86 µM.
Cc1cc(C)c(C)c(S(=O)(=O)N2CCN(c3ccc(O)cc3)CC2)c1C was tested, and the AC50 was 10.7 µM.
CCOC(=O)C(=O)NNc1ccc(Cl)cc1 showed an AC50 of 1.37 µM.
COc1cc(CNC(C)c2ccccc2)cc(Br)c1OCc1ccccc1 (centres undefined) was tested, and the AC50 was 6.75 µM.
Molecule CCOc1ccccc1CNc1ncnc2ccc(-c3c(C)noc3C)cc12 has an AC50 of 6.05 µM.
In the case of Cc1nc2ccccc2n1/N=C/c1ccc([N+](=O)[O-])o1, the AC50 is reported as 13.9 µM.
Work on CC1=NN(c2nc(-c3ccc(F)cc3)cs2)C(=O)C1 yielded an AC50 of 13.4 µM.
Work on O=C(O)c1ccc(Cl)c(S(=O)(=O)N(Cc2ccccc2)c2ccc(F)cc2)c1 yielded an AC50 of 14.5 µM.
Cc1cc(C(C)(C)C)c(OC(=O)[C@@H]2OC(c3ccccc3)=C[C@H]2c2ccccc2)c(C(C)(C)C)c1 was tested, and the AC50 was 7.77 µM.
With Cn1c(O)c(/C=N/Nc2ccccc2)c(=O)n(C)c1=O the AC50 was 4.08 µM.
O=C(Nc1ccc(Cl)c(C(F)(F)F)c1)NC1CC2CCCC(C1)N2Cc1ccccc1 (centres undefined) showed an AC50 of 6.8 µM.
In the case of CSc1nc2ccccc2cc1/C=C(\C#N)c1cccc(Cl)c1, the AC50 is reported as 2.73 µM.
Work on Cc1ccc(OCCCCN(C)Cc2ccccc2)c(Br)c1 yielded an AC50 of 12.5 µM.
With CN(C)N1C(N)=C(C#N)C(c2cccc3ccccc23)C2=C1CC(c1ccccc1)CC2=O (centres undefined) the AC50 was 1.02 µM.
With Cc1ncc(CN2CCCC(C(=O)Nc3ccc(-c4cccc(F)c4)cc3)C2)s1 (centres undefined) the AC50 was 11.7 µM.
Molecule CC(=O)c1ccc(N2CCC(c3cc(-c4ccc(Cl)cc4Cl)n[nH]3)CC2)c([N+](=O)[O-])c1 has an AC50 of 4.17 µM.
For COc1ccc(C(C)(C)C)cc1NC(=O)Nc1ccc2c(c1)OCO2, the AC50 was 8.21 µM.
Molecule CCC(=O)Nc1nc(C)c(-c2csc(Nc3cccc(O)c3)n2)s1 has an AC50 of 0.384 µM.
CC(C)CCn1c(N)c(C(=O)NCc2cccs2)c2nc3ccccc3nc21 showed an AC50 of 7.25 µM.
In the case of CC(C)c1ccc(-c2cc(C(=O)N3N=C(C(F)F)CC3(O)C(F)F)c3ccccc3n2)cc1 (centres undefined), the AC50 is reported as 6.3 µM.
Cc1ccccc1C(=O)N1CCN(c2ccc(NC(=O)c3ccc([N+](=O)[O-])o3)cc2)CC1 gave an AC50 of 4.37 µM.
CC(C)OC(=O)c1c2c(n3ccccc13)C(=O)c1ccccc1C2=O was tested, and the AC50 was > 19.5 µM (inactive).
For CC(=O)NC(c1ccccc1)c1cc([N+](=O)[O-])c2cccnc2c1O (centres undefined), the AC50 was 4.02 µM.
Molecule O=C1C2=C(NC(=S)NC2c2ccc(Cl)cc2)NC(c2ccc(Cl)cc2)N1c1ccc(Cl)cc1 (centres undefined) has an AC50 of 6.8 µM.
In the case of COc1cccc(O)c1CN1CCC(C(=O)Nc2ccc(-c3cccc(C)c3)cc2)CC1, the AC50 is reported as 4.06 µM.
For CSc1nc(C)cc(OCC(=O)N/N=C/c2ccccc2O)n1, the AC50 was 11 µM.
Work on COc1ccc(C(=O)/C=C2/C(=O)Nc3ccccc32)c(OC)c1 yielded an AC50 of 6.75 µM.
Work on COc1cccc(-c2sc3ccccc3c2-c2ccc(OCCN(C)C)cc2)c1 yielded an AC50 of 3.34 µM.
Molecule COc1ccc(/C=C/C(=O)c2ccc(O)cc2)cc1COc1ccc(F)cc1 has an AC50 of 4.37 µM.
In the case of COc1cc(/C=N/NC(=O)c2cc(C34CC5CC(CC(C5)C3)C4)[nH]n2)ccc1O, the AC50 is reported as 0.24 µM.
Cc1ccc(C(C)C)c(OCc2ccc(C(=O)N/N=C/c3ccc(O)c(O)c3)cc2)c1 gave an AC50 of 4.66 µM.
Work on Cc1nn(-c2ccccc2)c(C)c1/C=N/NC(=O)c1cc(-c2ccc(Br)s2)[nH]n1 yielded an AC50 of 4.72 µM.
Molecule COc1ccc(-c2sc3ccccc3c2-c2ccc(OCCN3CCOCC3)cc2)cc1 has an AC50 of 1.51 µM.
Cc1ccc(Cl)cc1N1CCN(C(CC(C)C)c2nnnn2CC2CCCO2)CC1 (centres undefined) gave an AC50 of 0.808 µM.
With Cc1ccc(/C=N/NC(=O)CNC(=O)COc2ccccc2)o1 the AC50 was > 19.5 µM (inactive).
Work on O=C1C=C(c2ccc(F)cc2OCc2ccccc2)C[C@@H](c2ccc(F)cc2)C1 yielded an AC50 of 2.25 µM.
Molecule Cc1cc(Nc2cccc(Cl)c2)nc(NCc2ccccc2)n1 has an AC50 of 3.73 µM.
CN(C)CCNC(=O)c1sc2nc(-c3ccccc3)cc(C(F)(F)F)c2c1N gave an AC50 of 5.23 µM.
COc1cccc(-c2sc3ccc(OC)cc3c2C#CCCO)c1 was tested, and the AC50 was 8.26 µM.
In the case of Cc1ccc(CNc2nc(-c3cccs3)nc3ccccc23)cc1, the AC50 is reported as 8.41 µM.
CCC(c1nnnn1Cc1ccco1)N1CCN(c2cc(Cl)ccc2C)CC1 (centres undefined) gave an AC50 of 4.04 µM.
CCCCCCCCNC(C)C(O)c1ccc(SC(C)C)cc1 (centres undefined) was tested, and the AC50 was 3.83 µM.
With CC1CC1C(=O)N1CCN(S(=O)(=O)c2cc(C(F)(F)F)cc(C(F)(F)F)c2)CC1 (centres undefined) the AC50 was 6.27 µM.
For CC(=O)Nc1ccc(-c2csc(NC(=O)Cc3ccccc3F)n2)cc1, the AC50 was 11.5 µM.
For O=C(CN1CCN(c2ccc(O)cc2)CC1)Nc1ccc(SC(F)F)cc1, the AC50 was 6.17 µM.
O=C(c1cccc(S(=O)(=O)N2CCc3ccccc3C2)c1)N1CCN(c2ccc(O)cc2)CC1 showed an AC50 of 2.9 µM.
In the case of CC(NS(=O)(=O)OCC(Cl)(Cl)Cl)c1ccc(C(C)(C)C)cc1 (centres undefined), the AC50 is reported as 3.57 µM.
CC(C)Oc1ccc(CNC(=O)CC(c2ccccc2)c2cc(Cl)ccc2O)cc1 (centres undefined) was tested, and the AC50 was 5.58 µM.
Cc1cccc(-n2ncc3c(N4CCCc5ccccc54)ncnc32)c1 was tested, and the AC50 was 7.68 µM.
Work on Cn1nnnc1Sc1ncnc2scc(-c3cccc4c3sc3ccccc34)c12 yielded an AC50 of 1.65 µM.
CC(/C=N/NC(=O)c1cc(-c2ccc(C)s2)[nH]n1)=C\c1ccccc1 showed an AC50 of 4.35 µM.
CCCCNC(=O)c1ccc(Cn2c(=S)[nH]c3c([nH]c4ccc(OC)cc43)c2=O)cc1 was tested, and the AC50 was 1.38 µM.
